Experimental data as given in patent publication US7153869B2, “Substituted amino acids as erythropoietin mimetics” (priority 1998, dated 2006).
Read-outs that look alike come from different tables or passages of the source.

Target: T1, EBP-Ig (N-terminal 225 amino acids of the human EPO receptor joined to an Ig heavy chain) (Homo sapiens, UniProt P19235)
T1 construct: Ig heavy chain (fusion partner); made in house; host or cells: NSO cells (secreted into conditioned media)
T1 sequence (P19235 25-250 limits assumed): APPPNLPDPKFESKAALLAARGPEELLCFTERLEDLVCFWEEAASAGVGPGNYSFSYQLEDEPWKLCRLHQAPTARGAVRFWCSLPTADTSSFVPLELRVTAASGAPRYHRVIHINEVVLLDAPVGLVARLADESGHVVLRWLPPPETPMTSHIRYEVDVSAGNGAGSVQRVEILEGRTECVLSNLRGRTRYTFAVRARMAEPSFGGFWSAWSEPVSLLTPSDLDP
Experiment: Inhibition of [125I]EPO binding to immobilized EBP-Ig (EPO binding protein-Ig), scintillation Flash plate competition assay
Details: for % inh @ 50 μM (Inhibition of EPO binding to EBP-Ig): 50 μM test compound, average % inhibition; for IC30 μM (Inhibition of EPO binding to EBP-Ig): 0–500 μM test compound
Excerpt: The interaction of biotin and streptavidin is frequently employed to capture and effectively immobilize reagents useful in assay protocols and has been employed here as a simple method to capture and immobilize EBP-Ig. EBP-Ig is initially randomly modified with an amine reactive derivative of biotin to produce biotinylated-EBP-Ig. Use of streptavidin coated plates allows the capture of the biotinylated EBP-Ig on the surface of a scintillant impregnated coated well (Flash plates, NEN-DuPont). […] The amount of light produced was quantified to estimate the amount of ligand binding. The specific assay format was suitable for the multi-well plate capacity of a Packard TopCount Microplate Scintillation counter.
Biotinylated EBP-Ig was prepared as follows. EBP-Ig (3 mL, OD280 2.9) was exchanged into 50 mM sodium bicarbonate, pH 8.5 using a Centriprep 10 ultrafiltration device. The final volume of the exchanged protein was 1.2 mL (OD280 2.6, representing about 2 mg total protein). 10 μL of a 4 mg/ml solution of NHS-LC-Biotin (Pierce) was added and the reaction mixture placed on ice in the dark for two hours. Unreacted biotin was removed by exchange of the reaction buffer into PBS in a Centriprep 10 device and the protein reagent aliquoted and stored at −70° C.
All wells were adjusted to a final DMSO concentration of 5%. […] After all additions were made, the plate was covered with an adhesive top seal and placed in the dark at room temperature overnight. The next day all liquid was aspirated from the wells to limit analyte dependent quench of the signal, and the plates were counted on a Packard TOPCOUNT Microplate Scintillation Counter. […] Corrected total binding (CTB) was calculated as: TB−NSB=CTB. […] Table 1 lists the average % inhibition, and if determined the IC50 and IC30 values for compounds of Formula I, where the compound numbers refer to the compounds in the tables accompanying the preparative examples.

[1] = read-out: % inh @ 50 μM (Inhibition of EPO binding to EBP-Ig)
[2] = read-out: EPO/EBP-Ig % inh @ 50 μM, Table 6, 50 μM

SMILES	EPO/EBP-Ig % inh @ 50 μM (Table 5, 50 μM)	EPO/EBP-Ig % inh @ 50 μM (Table 6, 50 μM)	also measured
COc1ccc(C(=O)Nc2ccc(/C=C/CN(Cc3ccc(OCc4ccccc4)cc3)C(CCC(=O)O)C(=O)O)cc2)cc1 (stereo not shown) [compound 82]	32%		% inh @ 50 μM (Inhibition of EPO binding to EBP-Ig) (0.5 nM [125I]EPO): 32%
O=C(O)CCCC(=O)Nc1ccc(/C=C/CN(Cc2ccc(OCc3ccccc3)cc2)C(CCC(=O)O)C(=O)O)cc1 (stereo not shown) [compound 83]	18%		
O=C(O)CCC(C(=O)O)N(C/C=C/c1ccc(NC(=O)C(F)(F)C(F)(F)F)cc1)Cc1ccc(OCc2ccccc2)cc1 (stereo not shown) [compound 84]	14%		
O=C(O)CCC(C(=O)O)N(C/C=C/c1ccc(NC(=O)C(F)(F)F)cc1)Cc1ccc(OCc2ccccc2)cc1 (stereo not shown) [compound 85]	20%		
O=C(O)CCC(C(=O)O)N(C/C=C/c1ccc(NC(=O)c2ccncc2)cc1)Cc1ccc(OCc2ccccc2)cc1 (stereo not shown) [compound 86]	37%		% inh @ 50 μM (Inhibition of EPO binding to EBP-Ig) (0.5 nM [125I]EPO): 37%
Cc1ccc(S(=O)(=O)Nc2ccc(/C=C/CN(Cc3ccc(OCc4ccccc4)cc3)C(CCC(=O)O)C(=O)O)cc2)cc1 (stereo not shown) [compound 87]	23%		
O=C(O)CCC(C(=O)O)N(C/C=C/c1ccc(NC(=O)CC2(CC(=O)O)CCCC2)cc1)Cc1ccc(OCc2ccccc2)cc1 (stereo not shown) [compound 88]	10.3%		
O=C(O)CCC(C(=O)O)N(C/C=C/c1ccc(NC(=O)Oc2ccccc2)cc1)Cc1ccc(OCc2ccccc2)cc1 (stereo not shown) [compound 89]	22%		
O=C(O)CCC(C(=O)O)N(C/C=C/c1ccc(NC(=O)c2ccc(-c3ccccc3)cc2)cc1)Cc1ccc(OCc2ccccc2)cc1 (stereo not shown) [compound 90]	29%		
O=C(O)CCC(C(=O)O)N(C/C=C/c1ccc(NC(=O)c2ccc([N+](=O)[O-])cc2)cc1)Cc1ccc(OCc2ccccc2)cc1 (stereo not shown) [compound 91]	19%		
COC(=O)C(CCC(=O)O)N(C/C=C/c1ccccc1)C/C=C/c1ccccc1 (stereo not shown) [compound 92]		20%	
COC(=O)C(CCC(=O)OC(C)(C)C)N(C/C=C/c1ccccc1)C/C=C/c1ccccc1 (stereo not shown) [compound 93]		20%	
CCOC(=O)CCC(C(=O)OC)N(C/C=C/c1ccccc1)C/C=C/c1ccccc1 (stereo not shown) [compound 94]		25%	
COC(=O)C(CCC(=O)OC(C)(C)C)N(C/C=C/c1cccc2ccccc12)C/C=C/c1cccc2ccccc12 (stereo not shown) [compound 95]		15%	
CC(C)(C)OC(=O)CCC(C(=O)O)N(C/C=C/c1ccc2ccccc2c1)C/C=C/c1ccc2ccccc2c1 (stereo not shown) [compound 97]		14%	
COC(=O)C(CCC(=O)OC(C)(C)C)N(C/C=C/c1cccc(Oc2ccc(Cl)c(Cl)c2)c1)C/C=C/c1cccc(Oc2ccc(Cl)c(Cl)c2)c1 (stereo not shown) [compound 99]		13%	
COC(=O)C(CCC(=O)O)N(C/C=C/c1cccc(Oc2ccc(Cl)c(Cl)c2)c1)C/C=C/c1cccc(Oc2ccc(Cl)c(Cl)c2)c1 (stereo not shown) [compound 101]		32%	% inh @ 50 μM (Inhibition of EPO binding to EBP-Ig) (0.5 nM [125I]EPO): 32%
CC(C)(C)OC(=O)CCC(C(=O)OC(C)(C)C)N(C/C=C/c1cccc(Oc2ccc(C(C)(C)C)cc2)c1)C/C=C/c1cccc(Oc2ccc(C(C)(C)C)cc2)c1 (stereo not shown) [compound 102]		5%	
CC(C)(C)OC(=O)CCC(C(=O)OC(C)(C)C)N(C/C=C/c1cccc(Oc2cccc(C(F)(F)F)c2)c1)C/C=C/c1cccc(Oc2cccc(C(F)(F)F)c2)c1 (stereo not shown) [compound 103]		17%	
CC(C)(C)c1ccc(Oc2cccc(/C=C/CN(C/C=C/c3cccc(Oc4ccc(C(C)(C)C)cc4)c3)C(CCC(=O)O)C(=O)O)c2)cc1 (stereo not shown) [compound 104]		78%	IC30 μM (Inhibition of EPO binding to EBP-Ig) (0.5 nM [125I]EPO): 10 µM; % inh @ 50 μM (Inhibition of EPO binding to EBP-Ig) (0.5 nM [125I]EPO): 78%; IC50 (read-out: IC50, μM (Inhibition of EPO binding to EBP-Ig), 0.5 nM [125I]EPO, concentration reducing corrected total binding to 50%): 30 µM
O=C(O)CCC(C(=O)O)N(C/C=C/c1cccc(Oc2cccc(C(F)(F)F)c2)c1)C/C=C/c1cccc(Oc2cccc(C(F)(F)F)c2)c1 (stereo not shown) [compound 105]			IC50: 35 µM; IC30 μM (Inhibition of EPO binding to EBP-Ig) (0.5 nM [125I]EPO): 25 µM; inhibition at 50 µM [1]: 70%; inhibition at 50 µM [2]: 70%
O=C(O)CC(C(=O)O)N(C/C=C/c1cccc(Oc2ccccc2)c1)C/C=C/c1cccc(Oc2ccccc2)c1 (stereo not shown) [compound 108]			IC30 μM (Inhibition of EPO binding to EBP-Ig) (0.5 nM [125I]EPO): 23 µM; inhibition at 50 µM [1]: 81%; inhibition at 50 µM [2]: 81%
COC(=O)C(CCCCNC(=O)OC(C)(C)C)N(Cc1cccc(OCc2ccccc2)c1)Cc1cccc(OCc2ccccc2)c1 (stereo not shown) [compound 109]			EPO/EBP-Ig % inh @ 50 μM (Table 7, 50 μM): 7%
COC(=O)C(CCCCN)N(Cc1ccc(OCc2ccccc2)cc1)Cc1ccc(OCc2ccccc2)cc1 (stereo not shown) [compound 110]			IC30 μM (Inhibition of EPO binding to EBP-Ig) (0.5 nM [125I]EPO): 6 µM; inhibition at 50 µM [1]: 54%; inhibition at 50 µM (read-out: EPO/EBP-Ig % inh @ 50 μM, Table 7, 50 μM): 54%
